From patent US8110660B2, “Soluble ENPP4 protein” (Ono Pharmaceutical Co., Ltd., priority 2004, dated 2012) come the findings set out here.

Assay type in all cases: biochemical
For assay [1], the target named is T1, purified soluble type ENPP4 protein (Homo sapiens, UniProt Q9Y6X5).
T1 construct: signal peptide; base No. 1 to 45, mature protein; base No. 46 to 1212; made in house; host or cells: HEK293T (secreted into culture supernatant, His-Trap purified)
T1 sequence (Q9Y6X5 16-404): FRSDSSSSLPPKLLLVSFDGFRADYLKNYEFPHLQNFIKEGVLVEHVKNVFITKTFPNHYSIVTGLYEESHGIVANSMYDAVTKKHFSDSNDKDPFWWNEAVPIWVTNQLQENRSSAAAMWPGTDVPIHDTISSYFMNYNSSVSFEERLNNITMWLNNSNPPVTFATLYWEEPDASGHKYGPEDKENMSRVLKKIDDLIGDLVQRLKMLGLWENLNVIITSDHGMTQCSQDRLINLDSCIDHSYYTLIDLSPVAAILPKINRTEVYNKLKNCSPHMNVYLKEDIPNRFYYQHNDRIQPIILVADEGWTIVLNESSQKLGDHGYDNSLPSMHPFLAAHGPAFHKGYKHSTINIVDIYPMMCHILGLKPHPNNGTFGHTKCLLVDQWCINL
The assay is described as follows: Inhibition of pNP-TMP or pNP-PP degradation by soluble type ENPP4 protein. As to the method: 0.2 μg of the purified soluble type ENPP4 protein was mixed in 90 μL of assay buffer (20 mM HEPES, 140 mM NaCl, 5 mM KCl, 10 mM Glucose, pH 8.5), and 10 μL of each of 10 mM pNP-TMP or pNP-PP and a solution of a test compound was added thereto, and then was kept at 37° C. for 2 hours. Then, absorption of light of 405 nm was measured and thereby, the amount of p-nitorphenol was quantitatively determined and thereby the inhibitory activity of pNP-TMP or pNP-PP degradation of each test compound was examined. By using pNP-TMP and Neurotransmitter Library Plate 10 (Purinergic & adenosines) ver. […] Moreover, 60% or more of the inhibitory activity was detected in CDP-Choline, and 40% or more of the inhibitory activity was detected in P1P3-DiAdenosine-triphosphate (AP(3)A), P1P6-DiAdenosine-hexaphosphate (AP(6)A).

Assay [2] concerns the target T1, purified soluble type ENPP4 protein. The assay is described as follows: Identification of nucleic acids to be ENPP4 substrate (HPLC). The note with it: for degradation by ENPP4 (NMP detected as reacted product) / degradation amount / activity of degrading by ENPP4: 200 μM nucleic acid, HPLC, FIG. 15; for degradation by ENPP4 (NMP detected as reacted product): pH 8.5, 37° C., 2, 5 or 8 hours. As to the method:
(§1) 0.5 μg of the purified soluble type ENPP4 protein was mixed in 500 μL of assay buffer (20 mM HEPES, 140 mM NaCl, 5 mM KCl, 10 mM Glucose, pH 8.5), and then, each kind of nucleic acids were added thereto so that its final concentration became 200 μM. The mixture was kept at 37° C. for 2, 5, or 8 hours. Then, by using HPLC (Unison-UKC18 reversed-phase column 30×2 mm, manufactured by Imtakt Co., Ltd.) (mobile phase: 50 mM sodium phosphate buffer (pH 6.4), 5 mM tetrabutylammonium hydrogen sulfate, 1 mM EDTA, 2-30% acetonitrile), the nucleic acids were separated from the reacted solution, and the substrates and the reacted products were quantitatively determined.

Assay [3] has as its target T2, purified soluble type ENPP5 protein (Homo sapiens, UniProt Q9UJA9).
T2 construct: signal peptide; base No. 1 to 66, mature protein; base No. 67 to 1287; made in house; host or cells: HEK293T (secreted into culture supernatant, His-Trap purified)
T2 sequence (Q9UJA9 23-429): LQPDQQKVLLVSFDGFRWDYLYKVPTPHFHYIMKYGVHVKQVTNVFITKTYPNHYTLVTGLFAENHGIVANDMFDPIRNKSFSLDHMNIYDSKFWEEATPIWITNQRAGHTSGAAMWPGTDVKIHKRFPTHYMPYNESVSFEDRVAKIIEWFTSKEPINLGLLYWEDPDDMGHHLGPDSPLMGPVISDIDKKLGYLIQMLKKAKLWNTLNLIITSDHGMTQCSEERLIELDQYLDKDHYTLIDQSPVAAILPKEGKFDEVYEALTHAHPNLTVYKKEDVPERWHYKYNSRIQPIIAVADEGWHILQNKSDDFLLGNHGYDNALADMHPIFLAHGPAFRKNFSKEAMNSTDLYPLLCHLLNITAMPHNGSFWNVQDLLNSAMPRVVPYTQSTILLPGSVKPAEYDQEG
In words: Identification of nucleic acids to be ENPP5 substrate (HPLC). The following applies: 200 μM nucleic acid, pH 7.5, 37° C., 2, 5 or 8 hours, FIG. 15. As to the method: as §1, with “ENPP5” for “ENPP4”, “7.5),” for “8.5),”, “performed” for “kept”

The target of assay [4] is T2, purified soluble type ENPP5 protein. The assay is described as follows: Inhibition of light-emitting substrate degradation by soluble type ENPP5 protein. As to the method:
0.2 μg of the purified soluble type ENPP5 protein was mixed in 90 μL of assay buffer (20 mM HEPES, 140 mM NaCl, 5 mM KCl, 10 mM Glucose, pH 7.5), and 10 μL of each of 10 mM pNP-PP and a solution of a test compound was added thereto, and then was kept at 37° C. for 2 hours. Then, absorption of light of 405 nm was measured and thereby, the amount of p-nitorphenol was quantitatively determined and thereby the inhibitory activity of […] pNP-PP degradation of each of the test compound was examined. By using Neurotransmitter Library Plate 10 (Purinergic & adenosines) ver. 2 (manufactured by BIOMOL Inc.) as test compounds, and the inhibitory activity of pNP-TMP degradation of each of 1 mM compounds was measured and, 70% or more of the inhibitory activity was detected in 2-Methyl-ATP, and 80% or more of the inhibitory activity was detected in ADP, UDP, and GDP.

As for `C[N+](C)(C)CCOP(=O)(O)OP(=O)([O-])OC[C@H]1O[C@@H](n2ccc(N)nc2=O)[C@H](O)[C@@H]1O` [CDP-Choline], the inhibition at 1000 µM in assay [1] (1 mM compound, pH 8.5, 37° C., 2 hours, FIG. 11 (pNP-TMP), read-out: inhibitory activity of pNP-TMP or pNP-PP degradation) was ≥ 60%. The “degradation by ENPP4 (NMP detected as reacted product)” value (from here on “degradation by ENPP4”) in assay [2] was “degraded by ENPP4”. In addition, the “degradation by ENPP5 (NMP detected as reacted product)” value in assay [3] is “degraded by ENPP5”. For `Nc1ccn([C@@H]2O[C@H](COP(=O)(O)OP(=O)(O)O)[C@@H](O)[C@H]2O)c(=O)n1` [CDP], in assay [2], the “degradation by ENPP4” value was “degraded by ENPP4”.

`Nc1ncnc2c1ncn2[C@@H]1O[C@H](COP(=O)(O)OP(=O)(O)OP(=O)(O)OC[C@H]2O[C@@H](n3cnc4c(N)ncnc43)[C@H](O)[C@@H]2O)[C@@H](O)[C@H]1O` [AP(3)A, P1P3-DiAdenosine-triphosphate]: the “degradation by ENPP4” value in assay [2] is given as “degraded by ENPP4”.

As for `Nc1ncnc2c1ncn2[C@@H]1O[C@H](COP(=O)(O)OP(=O)(O)OP(=O)(O)OP(=O)(O)OC[C@H]2O[C@@H](n3cnc4c(N)ncnc43)[C@H](O)[C@@H]2O)[C@@H](O)[C@H]1O` [AP(4)A, P1P4-DiAdenosine-tetraphosphate], in assay [2], the “degradation amount / activity of degrading by ENPP4” value was “lower than the activity of degrading Ap(3)A” and the “degradation by ENPP4” value is “degraded by ENPP4”.

On to `Nc1ncnc2c1ncn2[C@@H]1O[C@H](COP(=O)(O)OP(=O)(O)OP(=O)(O)O)[C@@H](O)[C@H]1O` [ATP], for which the “concentration dependence of inhibitory activity against ENPP4” value in assay [1] (FIG. 12, pNP-TMP degradation) is “inhibitory activity depending on concentration of ATP was detected”. In assay [4] (FIG. 13), the “concentration dependence of inhibitory activity of pNP-PC degradation by ENPP5” value was “inhibitory activity of pNP-PC degradation depending on concentration of ATP was detected”. In assay [2], the “degradation amount / activity of degrading by ENPP4” value is on record as “small” and the “degradation by ENPP4” value is “degraded by ENPP4”. Further, the “inhibitory activity against ENPP4 (concluded from small degradation and high inhibition)” value in assay [2] (conclusion from Examples 16 and 19) was “has an inhibitory activity against ENPP4”. Take `Cc1nc(N)c2ncn(C3OC(COP(=O)(O)OP(=O)(O)OP(=O)(O)O)C(O)C3O)c2n1` (stereo not drawn) [2-Methyl-ATP]: in assay [4] (1 mM compound, pH 7.5, 37° C., 2 hours), the “inhibitory activity of pNP-TMP degradation” value was ≥ 70%.

In the case of `O=c1ccn([C@@H]2O[C@H](COP(=O)(O)OP(=O)(O)O)[C@@H](O)[C@H]2O)c(=O)[nH]1` [UDP], in assay [2], the “degradation by ENPP4” value was “degraded by ENPP4”. In addition, the “degradation by ENPP5 (NMP detected as reacted product)” value in assay [3] is recorded as “degraded by ENPP5”. As to diadenosine 5-phosphate [Ap(5)A], the “degradation by ENPP4” value in assay [2] was “degraded by ENPP4”. Consider `Nc1ncnc2c1ncn2[C@@H]1O[C@H](COP(=O)(O)OP(=O)(O)OP(=O)(O)OP(=O)(O)OP(=O)(O)OP(=O)(O)OC[C@H]2O[C@@H](n3cnc4c(N)ncnc43)[C@H](O)[C@@H]2O)[C@@H](O)[C@H]1O` [AP(6)A, P1P6-DiAdenosine-hexaphosphate], for which the “degradation by ENPP4” value in assay [2] is given as “degraded by ENPP4”. On the same count and under the same terms, in the case of `O=c1ccn([C@@H]2O[C@H](COP(=O)(O)OP(=O)(O)OP(=O)(O)O)[C@@H](O)[C@H]2O)c(=O)[nH]1` [UTP] it was “degraded by ENPP4”; in that of `Nc1ccn([C@@H]2O[C@H](COP(=O)(O)OP(=O)(O)OP(=O)(O)O)[C@@H](O)[C@H]2O)c(=O)n1` [CTP], “degraded by ENPP4”.

With `Nc1ncnc2c1ncn2[C@@H]1O[C@H](COP(=O)(O)OP(=O)(O)O)[C@@H](O)[C@H]1O` [ADP], in assay [2], the “degradation by ENPP4” value is “degraded by ENPP4”. Also, in assay [3], the “degradation by ENPP5 (NMP detected as reacted product)” value is listed as “degraded by ENPP5”.
